{"source": "patent US20130072470A1", "about": "(ABBVIE INC., priority 2011, published 2013)"}
{"molecular_target": "T1, Jak3 enzyme (aa 811-1103) (Homo sapiens, UniProt P52333)", "T1 construct": "Jak3 enzyme (aa 811-1103); expressed in SF9 cells as a GST fusion; GST; made in house; host or cells: SF9 insect cells", "T1 sequence (P52333 811-1103)": "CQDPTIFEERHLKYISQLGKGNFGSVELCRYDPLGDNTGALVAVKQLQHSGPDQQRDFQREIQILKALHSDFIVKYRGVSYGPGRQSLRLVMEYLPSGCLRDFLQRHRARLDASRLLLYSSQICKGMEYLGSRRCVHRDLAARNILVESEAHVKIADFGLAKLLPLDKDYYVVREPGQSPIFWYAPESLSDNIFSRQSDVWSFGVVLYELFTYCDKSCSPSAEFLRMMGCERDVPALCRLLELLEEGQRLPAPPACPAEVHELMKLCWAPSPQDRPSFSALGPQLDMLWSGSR", "assay": "In vitro Jak3 kinase activity measured by time-resolved fluorescence resonance energy transfer (trFRET)", "format": "biochemical", "details": "ATP 0.001 mM, Table B", "procedure": "In Vitro Jak3 Kinase Activity Measured by Time-Resolved Fluorescence Resonance Energy Transfer (trFRET)\nVarying concentrations of inhibitor were added to an assay well containing: Jak3 enzyme (aa 811-1103; expressed in SF9 cells as a GST fusion and purified by glutathione affinity chromatography; 3 nM), peptide substrate (biotin-TYR2, Sequence: Biotin-(Ahx)-AEEEYFFLFA-amide; 2 μM), MOPSO pH 6.5 (50 mM), MgCl2 (10 mM), MnCl2 (2 mM), DTT (2.5 mM), BSA (0.01% w/v), Na3VO4 (0.1 mM) and ATP (0.001 mM). After about 60 min incubation at rt, the reaction was quenched by addition of EDTA (final concentration: 100 mM) and developed by addition of revelation reagents (final approximate concentrations: 30 mM HEPES pH 7.0, 0.06% BSA, 0.006% Tween-20, 0.24 M KF, 80 ng/mL PT66K (europium labeled anti-phosphotyrosine antibody cat #61T66KLB Cisbio, Bedford, Mass.) and 0.8 μg/mL SAXL (Phycolink streptavidin-allophycocyanin acceptor, cat #PJ52S, Prozyme, San Leandro, Calif.). The developed reaction was incubated in the dark either at about 4° C., for about 14 h or for about 60 min at rt, then read via a time-resolved fluorescence detector (Rubystar, BMG) using a 337 nm laser for excitation and emission wavelength of 665 nm. Within the linear range of the assay, the observed signal at 665 nm is directly related to phosphorylated product and used to calculate the IC50 values.", "units": {"IC50": "µM"}}
{"smiles": "CC[C@@H]1C[C@H](NC(=O)CNC(=O)c2ccc(C)o2)C[C@@H]1c1nnc2cnc3[nH]ccc3n12", "note": "[compound 30, N-(2-((1S,3R,4S)-3-ethyl-4-(6H-pyrrolo[2,3-e][1,2,4]triazolo[4,3-a]pyrazin-1-yl)cyclopentylamino)-2-oxoethyl)-5-methylfuran-2-carboxamide]", "IC50": "1 to 10"}
{"smiles": "CC[C@@H]1C[C@H](NC(=O)C(CC2CC2)NC(C)=O)C[C@@H]1c1nnc2cnc3[nH]ccc3n12", "note": "(stereo partly drawn) [compound 31, 2-acetamido-3-cyclopropyl-N-((1S,3R,4S)-3-ethyl-4-(6H-pyrrolo[2,3-e][1,2,4]triazolo[4,3-a]pyrazin-1-yl)cyclopentyl)propanamide]", "IC50": "> 10"}
{"smiles": "CC[C@@H]1C[C@H](NC(=O)c2coc3ccccc23)C[C@@H]1c1nnc2cnc3[nH]ccc3n12", "note": "[compound 32, N-((1S,3R,4S)-3-ethyl-4-(6H-pyrrolo[2,3-e][1,2,4]triazolo[4,3-a]pyrazin-1-yl)cyclopentyl)benzofuran-3-carboxamide]", "IC50": "1 to 10"}
{"smiles": "CC[C@@H]1C[C@H](NC(=O)c2cc3ccc(C)cc3o2)C[C@@H]1c1nnc2cnc3[nH]ccc3n12", "note": "[compound 33, N-((1S,3R,4S)-3-ethyl-4-(6H-pyrrolo[2,3-e][1,2,4]triazolo[4,3-a]pyrazin-1-yl)cyclopentyl)-6-methylbenzofuran-2-carboxamide]", "IC50": "1 to 10"}
{"smiles": "CC[C@@H]1C[C@H](NC(=O)c2conc2C)C[C@@H]1c1nnc2cnc3[nH]ccc3n12", "note": "[compound 34, N-((1S,3R,4S)-3-ethyl-4-(6H-pyrrolo[2,3-e][1,2,4]triazolo[4,3-a]pyrazin-1-yl)cyclopentyl)-3-methylisoxazole-4-carboxamide]", "IC50": "1 to 10"}
{"smiles": "CC[C@@H]1C[C@H](NC(=O)c2c(C)oc3c2CCCC3)C[C@@H]1c1nnc2cnc3[nH]ccc3n12", "note": "[compound 35, N-((1S,3R,4S)-3-ethyl-4-(6H-pyrrolo[2,3-e][1,2,4]triazolo[4,3-a]pyrazin-1-yl)cyclopentyl)-2-methyl-4,5,6,7-tetrahydrobenzofuran-3-carboxamide]", "IC50": "1 to 10"}
{"smiles": "CC[C@@H]1C[C@H](NC(=O)CCc2cc(OC)no2)C[C@@H]1c1nnc2cnc3[nH]ccc3n12", "note": "[compound 36, N-((1S,3R,4S)-3-ethyl-4-(6H-pyrrolo[2,3-e][1,2,4]triazolo[4,3-a]pyrazin-1-yl)cyclopentyl)-3-(3-methoxyisoxazol-5-yl)propanamide]", "IC50": "1 to 10"}
{"smiles": "CC[C@@H]1C[C@H](NC(=O)CCc2nc(C)no2)C[C@@H]1c1nnc2cnc3[nH]ccc3n12", "note": "[compound 37, N-((1S,3R,4S)-3-ethyl-4-(6H-pyrrolo[2,3-e][1,2,4]triazolo[4,3-a]pyrazin-1-yl)cyclopentyl)-3-(3-methyl-1,2,4-oxadiazol-5-yl)propanamide]", "IC50": "1 to 10"}
{"smiles": "CC[C@@H]1C[C@H](NC(=O)CNC(=O)c2cnoc2C)C[C@@H]1c1nnc2cnc3[nH]ccc3n12", "note": "[compound 38, N-(2-((1S,3R,4S)-3-ethyl-4-(6H-pyrrolo[2,3-e][1,2,4]triazolo[4,3-a]pyrazin-1-yl)cyclopentylamino)-2-oxoethyl)-5-methylisoxazole-4-carboxamide]", "IC50": "1 to 10"}
{"smiles": "CC[C@@H]1C[C@H](NC(=O)C2=NN=C(c3ccco3)C2)C[C@@H]1c1nnc2cnc3[nH]ccc3n12", "note": "[compound 39, N-((1S,3R,4S)-3-ethyl-4-(6H-pyrrolo[2,3-e][1,2,4]triazolo[4,3-a]pyrazin-1-yl)cyclopentyl)-5-(furan-2-yl)-4H-pyrazole-3-carboxamide]", "IC50": "< 1"}
{"smiles": "CC[C@@H]1C[C@H](NC(=O)Cc2coc3ccccc23)C[C@@H]1c1nnc2cnc3[nH]ccc3n12", "note": "[compound 41, 2-(benzofuran-3-yl)-N-((1S,3R,4S)-3-ethyl-4-(6H-pyrrolo[2,3-e][1,2,4]triazolo[4,3-a]pyrazin-1-yl)cyclopentyl)acetamide]", "IC50": "1 to 10"}
{"smiles": "CC[C@@H]1C[C@H](NC(=O)c2ncoc2C)C[C@@H]1c1nnc2cnc3[nH]ccc3n12", "note": "[compound 42, N-((1S,3R,4S)-3-ethyl-4-(6H-pyrrolo[2,3-e][1,2,4]triazolo[4,3-a]pyrazin-1-yl)cyclopentyl)-5-methyloxazole-4-carboxamide]", "IC50": "1 to 10"}
{"smiles": "CC[C@@H]1C[C@H](NC(=O)c2oc3ccccc3c2C)C[C@@H]1c1nnc2cnc3[nH]ccc3n12", "note": "[compound 43, N-((1S,3R,4S)-3-ethyl-4-(6H-pyrrolo[2,3-e][1,2,4]triazolo[4,3-a]pyrazin-1-yl)cyclopentyl)-3-methylbenzofuran-2-carboxamide]", "IC50": "1 to 10"}
{"smiles": "CC[C@@H]1C[C@H](NC(=O)CCC2(C)CC2)C[C@@H]1c1nnc2cnc3[nH]ccc3n12", "note": "[compound 44, N-((1S,3R,4S)-3-ethyl-4-(6H-pyrrolo[2,3-e][1,2,4]triazolo[4,3-a]pyrazin-1-yl)cyclopentyl)-3-(1-methylcyclopropyl)propanamide]", "IC50": "1 to 10"}
{"smiles": "CC[C@@H]1C[C@H](NC(=O)CCC2CC2)C[C@@H]1c1nnc2cnc3[nH]ccc3n12", "note": "[compound 45, 3-cyclopropyl-N-((1S,3R,4S)-3-ethyl-4-(6H-pyrrolo[2,3-e][1,2,4]triazolo[4,3-a]pyrazin-1-yl)cyclopentyl)propanamide]", "IC50": "1 to 10"}
{"smiles": "CC[C@@H]1C[C@H](NC(=O)c2ccc(C)o2)C[C@@H]1c1nnc2cnc3[nH]ccc3n12", "note": "[compound 46, N-((1S,3R,4S)-3-ethyl-4-(6H-pyrrolo[2,3-e][1,2,4]triazolo[4,3-a]pyrazin-1-yl)cyclopentyl)-5-methylfuran-2-carboxamide]", "IC50": "> 10"}
{"smiles": "CC[C@@H]1C[C@H](NC(=O)c2ncoc2C2CC2)C[C@@H]1c1nnc2cnc3[nH]ccc3n12", "note": "[compound 47, 5-cyclopropyl-N-((1S,3R,4S)-3-ethyl-4-(6H-pyrrolo[2,3-e][1,2,4]triazolo[4,3-a]pyrazin-1-yl)cyclopentyl)oxazole-4-carboxamide]", "IC50": "> 10"}
{"smiles": "CC[C@@H]1C[C@H](NC(=O)CNC(=O)c2ccco2)C[C@@H]1c1nnc2cnc3[nH]ccc3n12", "note": "[compound 48]", "IC50": "1 to 10"}
{"smiles": "CC[C@@H]1C[C@H](NC(=O)c2cc(C)on2)C[C@@H]1c1nnc2cnc3[nH]ccc3n12", "note": "[compound 49, N-((1S,3R,4S)-3-ethyl-4-(6H-pyrrolo[2,3-e][1,2,4]triazolo[4,3-a]pyrazin-1-yl)cyclopentyl)-5-methylisoxazole-3-carboxamide]", "IC50": "1 to 10"}
{"smiles": "CC[C@@H]1C[C@H](NC(=O)c2ccno2)C[C@@H]1c1nnc2cnc3[nH]ccc3n12", "note": "[compound 50, N-((1S,3R,4S)-3-ethyl-4-(6H-pyrrolo[2,3-e][1,2,4]triazolo[4,3-a]pyrazin-1-yl)cyclopentyl)isoxazole-5-carboxamide]", "IC50": "1 to 10"}
{"smiles": "CC[C@@H]1C[C@H](NC(=O)c2ocnc2C)C[C@@H]1c1nnc2cnc3[nH]ccc3n12", "note": "[compound 51, N-((1S,3R,4S)-3-ethyl-4-(6H-pyrrolo[2,3-e][1,2,4]triazolo[4,3-a]pyrazin-1-yl)cyclopentyl)-4-methyloxazole-5-carboxamide]", "IC50": "1 to 10"}
{"smiles": "CC[C@@H]1C[C@H](NC(=O)c2ccoc2C)C[C@@H]1c1nnc2cnc3[nH]ccc3n12", "note": "[compound 52, N-((1S,3R,4S)-3-ethyl-4-(6H-pyrrolo[2,3-e][1,2,4]triazolo[4,3-a]pyrazin-1-yl)cyclopentyl)-2-methylfuran-3-carboxamide]", "IC50": "1 to 10"}
{"smiles": "CC[C@@H]1C[C@H](NC(=O)CCc2ccco2)C[C@@H]1c1nnc2cnc3[nH]ccc3n12", "note": "[compound 53, N-((1S,3R,4S)-3-ethyl-4-(6H-pyrrolo[2,3-e][1,2,4]triazolo[4,3-a]pyrazin-1-yl)cyclopentyl)-3-(furan-2-yl)propanamide]", "IC50": "< 1"}
{"smiles": "CC[C@@H]1C[C@H](NC(=O)C2(C#N)CC2)C[C@@H]1c1nnc2cnc3[nH]ccc3n12", "note": "[compound 54, 1-cyano-N-((1S,3R,4S)-3-ethyl-4-(6H-pyrrolo[2,3-e][1,2,4]triazolo[4,3-a]pyrazin-1-yl)cyclopentyl)cyclopropanecarboxamide]", "IC50": "1 to 10"}
{"smiles": "CC[C@@H]1C[C@H](NC(=O)Cc2cc(C)no2)C[C@@H]1c1nnc2cnc3[nH]ccc3n12", "note": "[compound 55, N-((1S,3R,4S)-3-ethyl-4-(6H-pyrrolo[2,3-e][1,2,4]triazolo[4,3-a]pyrazin-1-yl)cyclopentyl)-2-(3-methylisoxazol-5-yl)acetamide]", "IC50": "1 to 10"}
{"smiles": "CC[C@@H]1C[C@H](NC(=O)c2ccoc2)C[C@@H]1c1nnc2cnc3[nH]ccc3n12", "note": "[compound 56, N-((1S,3R,4S)-3-ethyl-4-(6H-pyrrolo[2,3-e][1,2,4]triazolo[4,3-a]pyrazin-1-yl)cyclopentyl)furan-3-carboxamide]", "IC50": "1 to 10"}
{"smiles": "CC[C@@H]1C[C@H](NC(=O)c2cc3ccccc3o2)C[C@@H]1c1nnc2cnc3[nH]ccc3n12", "note": "[compound 57, N-((1S,3R,4S)-3-ethyl-4-(6H-pyrrolo[2,3-e][1,2,4]triazolo[4,3-a]pyrazin-1-yl)cyclopentyl)benzofuran-2-carboxamide]", "IC50": "1 to 10"}
{"smiles": "CC[C@@H]1C[C@H](NC(=O)c2coc3c2C(=O)CCC3)C[C@@H]1c1nnc2cnc3[nH]ccc3n12", "note": "[compound 58, N-((1S,3R,4S)-3-ethyl-4-(6H-pyrrolo[2,3-e][1,2,4]triazolo[4,3-a]pyrazin-1-yl)cyclopentyl)-4-oxo-4,5,6,7-tetrahydrobenzofuran-3-carboxamide]", "IC50": "1 to 10"}
